Assay results published in ChEMBL document CHEMBL6109093, “Designing novel nucleoside inhibitors targeting the allosteric site of PBP2a: A strategic approach to overcome resistance in MRSA” (Bioorg Med Chem, 2025).
Values after ≈ are worked out from the molar mass of the structure shown. Active and inactive are the calls of the source. The rule behind the calls is not given here.

What was measured:
Staphylococcus aureus [1] = experiment: Antibacterial activity against methicillin-sensitive Staphylococcus aureus ATCC 29213 measured after 24 hrs by turbidimetric assay; format: functional
Staphylococcus aureus [2] = experiment: Antibacterial activity against methicillin-resistant Staphylococcus aureus Mu 50 measured after 24 hrs by turbidimetric assay; format: functional
Escherichia coli = experiment: Antibacterial activity against Escherichia coli ATCC 25922 measured after 24 hrs by turbidimetric assay; format: functional
[3] = biological target: T1, MecA (Staphylococcus aureus) (UniProt Q7DHH4); experiment: Inhibition of PBP2a in methicillin-resistant Staphylococcus aureus Mu 50 assessed as disruption of bacterial cell wall integrity by measuring release of intracellular contents at 64 ug/ml measured after 12 hrs by transmission electron microscopy; format: cell-based; settings: dose 64.0 µg/ml
T1 sequence (whole entry): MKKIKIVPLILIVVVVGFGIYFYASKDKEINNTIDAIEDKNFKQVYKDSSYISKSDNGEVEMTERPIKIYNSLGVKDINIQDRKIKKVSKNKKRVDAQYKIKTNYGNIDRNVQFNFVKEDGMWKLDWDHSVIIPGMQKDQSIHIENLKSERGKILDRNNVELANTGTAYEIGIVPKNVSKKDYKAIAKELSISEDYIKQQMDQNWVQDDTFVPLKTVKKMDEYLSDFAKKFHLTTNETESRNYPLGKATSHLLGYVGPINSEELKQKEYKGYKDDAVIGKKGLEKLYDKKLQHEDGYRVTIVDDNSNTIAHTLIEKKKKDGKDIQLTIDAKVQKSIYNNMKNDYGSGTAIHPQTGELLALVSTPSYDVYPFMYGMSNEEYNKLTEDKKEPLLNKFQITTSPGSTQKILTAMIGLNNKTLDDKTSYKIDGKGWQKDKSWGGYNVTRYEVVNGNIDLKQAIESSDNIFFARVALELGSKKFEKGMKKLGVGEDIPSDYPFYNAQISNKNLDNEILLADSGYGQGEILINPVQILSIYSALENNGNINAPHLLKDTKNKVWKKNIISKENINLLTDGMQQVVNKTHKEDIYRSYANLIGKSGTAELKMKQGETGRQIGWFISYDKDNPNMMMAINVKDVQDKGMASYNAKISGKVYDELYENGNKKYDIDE

Staphylococcus aureus [4] = experiment: Resistance development in methicillin-resistant Staphylococcus aureus Mu 50 assessed as MIC after 9 passages by broth dilution method; format: functional
Staphylococcus aureus [5] = experiment: Resistance development in methicillin-resistant Staphylococcus aureus Mu 50 assessed as fold change in MIC after and before 6 passages by broth dilution method; format: functional
Staphylococcus aureus [6] = experiment: Antibacterial activity against methicillin-resistant Staphylococcus aureus Mu 50 at 4 to 32 ug/ml measured at 1 hr interval for 24 hrs; format: functional, organism-based; settings: dose 4-32 µg/ml
[7] = Cytotoxicity against mouse BEND3 cells assessed as reduction in cell viability at 64 ug/ml measured after 24 hrs by CCK-8 assay; format: toxicity, cell-based; settings: bend3, 24 h, dose 64 µg/ml
Staphylococcus aureus [8] = experiment: Bactericidal activity against methicillin-resistant Staphylococcus aureus Mu 50 assessed as reduction in colony formation at 8 to 32 ug/ml measured after 3 hrs by time-kill assay; format: functional, organism-based; settings: dose 8-32 µg/ml
[9] = biological target: T1, MecA (Staphylococcus aureus); experiment: Inhibition of PBP2a in methicillin-resistant Staphylococcus aureus Mu 50 assessed as blurred cell wall boundaries at 16 ug/ml measured after 12 hrs by transmission electron microscopy; settings: dose 16.0 µg/ml
Staphylococcus aureus [10] = experiment: Synergistic antibacterial activity against methicillin-resistant Staphylococcus aureus Mu 50 at 16 to 32 ug/ml measured at 1 hr interval for 24 hrs in presence of oxacillin; format: functional, organism-based; settings: dose 16-32 µg/ml
Staphylococcus aureus [11] = experiment: Antibacterial activity against methicillin-sensitive Staphylococcus aureus ATCC 29213 at 4 to 32 ug/ml measured at 1 hr interval for 24 hrs; format: functional, organism-based; settings: dose 4-32 µg/ml
[12] = Cytotoxicity against human intestinal epithelial cells assessed as reduction in cell viability at 64 ug/ml measured after 24 hrs by CCK-8 assay; format: toxicity, cell-based; settings: dose 64 µg/ml
Staphylococcus aureus [13] = experiment: Synergistic antibacterial activity against methicillin-resistant Staphylococcus aureus Mu 50 at 64 to 128 ug/ml measured at 1 hr interval for 24 hrs in presence of oxacillin; format: functional, organism-based; settings: dose 64-128 µg/ml
Staphylococcus aureus [14] = experiment: Bactericidal activity against methicillin-resistant Staphylococcus aureus Mu 50 assessed as reduction in colony formation measured after 2 to 24 hrs by time-kill assay; format: functional, organism-based; settings: dose 8-32 µg/ml, time 2-24 hrs
[15] = biological target: T1, MecA (Staphylococcus aureus); experiment: Inhibition of PBP2a in methicillin-resistant Staphylococcus aureus Mu 50 assessed as abnormal cell division at 16 ug/ml measured after 12 hrs by transmission electron microscopy; settings: dose 16.0 µg/ml

Structure (SMILES)	MIC (Staphylococcus aureus [1])	MIC (Staphylococcus aureus [2])	MIC (Escherichia coli)	other results
Nc1ncnc2c1c(C#Cc1cccc(F)c1)cn2[C@@H]1O[C@H](CSCc2cccc(C(=O)O)c2)[C@@H](O)[C@H]1O	> 128 µg/mL	> 128 µg/mL	> 128 µg/mL	–
N#Cc1cccc(CSC[C@H]2O[C@@H](n3cnc4c(N)ncnc43)[C@H](O)[C@@H]2O)c1	> 128 µg/mL	> 128 µg/mL	> 128 µg/mL	–
Nc1ncnc2c1c(C#Cc1ccccc1)cn2[C@@H]1O[C@H](CSCc2cccc(C(=O)O)c2)[C@@H](O)[C@H]1O	> 128 µg/mL	> 128 µg/mL	> 128 µg/mL	–
Cc1onc(-c2ccccc2)c1C(=O)N[C@@H]1C(=O)N2[C@@H]1SC(C)(C)[C@@H]2C(=O)O [OXACILLIN]	–	64 µg/mL (≈ 159 µM)	–	inhibition [3]: Active
CCO/N=C(\C(=O)N[C@@H]1C(=O)N2C(C(=O)[O-])=C(Sc3nc(-c4cc[n+](C)cc4)cs3)CS[C@H]12)c1nsc(NP(=O)(O)O)n1 [CEFTAROLINE FOSAMIL]	–	32 µg/mL (≈ 46.7 µM)	–	MIC (Staphylococcus aureus [4]): 128 µg/mL (≈ 187 µM); fold change (FC) (Staphylococcus aureus [5]): 2
Nc1ncnc2c1c(C#Cc1cccc([N+](=O)[O-])c1)cn2[C@@H]1O[C@H](CSCc2cccc(C(=O)O)c2)[C@@H](O)[C@H]1O	> 128 µg/mL	> 128 µg/mL	> 128 µg/mL	–
Nc1ncnc2c1ncn2[C@@H]1O[C@H](CSCc2cncc(C(=O)O)n2)[C@@H](O)[C@H]1O	> 128 µg/mL	> 128 µg/mL	> 128 µg/mL	–
Nc1ncnc2c1ncn2[C@@H]1O[C@H](CSCc2cccc(C(=O)O)c2)[C@@H](O)[C@H]1O	> 128 µg/mL	> 128 µg/mL	> 128 µg/mL	–
Nc1ncnc2c1c(C#Cc1cccnc1)cn2[C@@H]1O[C@H](CSCc2cccc(C(=O)O)c2)[C@@H](O)[C@H]1O	> 128 µg/mL	> 128 µg/mL	> 128 µg/mL	–
Nc1ncnc2c1ncn2[C@@H]1O[C@H](CSCc2cc(C(=O)O)no2)[C@@H](O)[C@H]1O	> 128 µg/mL	> 128 µg/mL	> 128 µg/mL	–
Nc1ncnc2c1c(C#Cc1ccc3ccccc3c1)cn2[C@@H]1O[C@H](CSCc2cccc(C(=O)O)c2)[C@@H](O)[C@H]1O	> 128 µg/mL	32 µg/mL (≈ 56.5 µM)	> 128 µg/mL	–
Nc1ncnc2c1ncn2[C@@H]1O[C@H](CSCc2cccc(C(=O)O)n2)[C@@H](O)[C@H]1O	> 128 µg/mL	> 128 µg/mL	> 128 µg/mL	–
Nc1ncnc2c1c(C#Cc1ccc3sccc3c1)cn2[C@@H]1O[C@H](CSCc2cccc(C(=O)O)c2)[C@@H](O)[C@H]1O	> 128 µg/mL	16 µg/mL (≈ 27.9 µM)	> 128 µg/mL	Activity (Staphylococcus aureus [6]): Active; Significant Inhibition Observed; Activity [7]: Non-toxic; Activity (Staphylococcus aureus [8]): Active; Significant Reduction Observed; inhibition [9]: Active; Significantly Inhibits The Cross-Linking Of Peptidoglycan Substrates By Pbp2A; Activity (Staphylococcus aureus [10]): Active; Enhanced The Inhibitory Effect Of Oxacillin; MIC (Staphylococcus aureus [4]): 64 µg/mL (≈ 112 µM); Activity (Staphylococcus aureus [11]): inactive; Activity [12]: Non-toxic; Activity (Staphylococcus aureus [13]): Not active; Decreased The Activity Of Oxacillin; Activity (Staphylococcus aureus [14]): Dose-dependent-effect; inhibition [15]: Active; Significantly Inhibits The Cross-Linking Of Peptidoglycan Substrates By Pbp2A
